Results: the OPERA property sets (Mansouri et al. 2018)

conditions: not given

Structure (SMILES) | melting point [°C] | boiling point [°C] | ready biodegradability | log10 vapour pressure (mmHg) | log10 Koc (L/kg) | log10 Henry constant (atm·m³/mol) | log10 biodegradation half-life (days) | log10 Koa
O=C1CN(/N=C/c2ccc([N+](=O)[O-])o2)C(=O)N1CN1CCOCC1 | 206 |  |  |  |  |  |  | 
CCCCCOC(=O)CCCC | -78.8 | 204 |  |  |  |  |  | 
O=C(O)c1cc(Cl)c(C(=O)O)cc1Cl | 306 |  |  |  |  |  |  | 
Nc1c(Br)cc2c(c1Br)Cc1ccccc1-2 |  |  | not readily biodegradable |  |  |  |  | 
O=CCc1ccccc1 | 33.5 | 195 |  | -0.407 |  |  |  | 
CC(C)C(C)O (centres undefined) |  | 112 |  | 0.961 |  |  |  | 
CCOP(=S)(OCC)SCS(=O)(=O)C(C)(C)C |  |  |  |  | 2.18 |  |  | 
O=c1c2ccccc2ccc2ccccc12 | 88.5 |  |  |  |  |  |  | 
Clc1ccc(OCOCC#CI)cc1 |  |  | not readily biodegradable |  |  |  |  | 
Nc1ccccc1[N+](=O)[O-] | 71 | 284 | not readily biodegradable | -2.56 |  | -7.23 |  | 
O=C1CCCCCCCC1 | 34 |  |  |  |  |  |  | 
CC(C(=O)O)c1ccc(C2CCC/C(=N\O)C2)cc1 (centres undefined) | 178 |  |  |  |  |  |  | 
O=C(NCO)c1cccnc1 | 142 |  |  |  |  |  |  | 
C1CCN(CCN2CCCCC2)CC1 | -0.5 | 265 |  |  |  |  |  | 
O=S(=O)(Cl)c1ccc(F)cc1 | 30 |  |  |  |  |  |  | 
COc1c(OC)c(OC(C)=O)c2ccccc2c1OC(C)=O | 138 |  |  |  |  |  |  | 
CCCCC(C(N)=O)n1nnc2ccccc21 (centres undefined) | 118 |  |  |  |  |  |  | 
Clc1ccc(Cl)s1 | -40.5 | 162 |  | 0.934 |  |  |  | 
CCCCCCC(C)C | -80.3 | 143 |  | 0.793 |  |  | 0.699 | 
FC(Cl)(Cl)C(F)(Cl)Cl | 26 | 93 | not readily biodegradable | 1.7 |  |  |  | 
O=NN1CCC[C@H]1c1cccnc1 | 47 |  |  |  |  |  |  | 
CCCCCCCCCCCCCCCCCCN(C)C | 22.9 |  |  |  |  |  |  | 
CCC(=O)C(C)CC (centres undefined) |  | 134 |  |  |  |  |  | 
CN(C)c1ccc2ccccc2c1 | 52.5 | 305 |  |  |  |  |  | 
CSCC[C@H](NC(C)=O)C(=O)O | 106 |  |  |  |  |  |  | 

Structure (SMILES) | melting point [°C] | boiling point [°C] | ready biodegradability | log10 vapour pressure (mmHg) | log10 Koc (L/kg) | log10 Henry constant (atm·m³/mol) | log10 biodegradation half-life (days) | log10 Koa
Cc1cccc(Nc2ccccc2)c1 | 30 | 316 |  | -3.83 |  |  |  | 
CC(=O)Oc1ccc(OC(C)=O)cc1 | 124 |  |  |  |  |  |  | 
CNC(=O)c1ccccc1 | 82 | 291 |  |  | 1.68 |  |  | 
C=C[Si]1(C)O[Si](C)(C=C)O[Si](C)(C=C)O[Si](C)(C=C)O1 (centres undefined) | -43.5 | 224 |  |  |  |  |  | 
Clc1cc(Cl)c2oc3c(Cl)c(Cl)ccc3c2c1 | 164 |  |  | -7.48 |  |  |  | 
CC(C)CN(CC(C)C)CC(C)C | -21.8 | 192 |  |  |  |  |  | 
COc1ccccc1C=O | 37.5 | 244 |  |  |  |  |  | 
c1ccc(Cc2ccc(-c3ccccc3)cc2)cc1 | 85 |  |  |  |  |  |  | 
Cc1ccc(C(=O)c2ccccc2)cc1 | 59.5 |  |  |  |  |  |  | 
CN1C(=O)OC(C)(C)C1=O | 46 |  |  |  |  |  |  | 
O=C1c2ccccc2C(=O)N1Cc1ccccc1 | 116 |  |  |  |  |  |  | 
FC(F)(Cl)C(Cl)(Cl)Cl | 40.6 | 91.5 |  | 1.78 |  |  |  | 
CCOc1ccc(F)cc1 | -8.5 | 173 |  |  |  |  |  | 
O=C(O)CCCCCCC(=O)O | 144 | 346 |  | -6.54 |  |  |  | 
Cn1c(=O)n(C)c(=O)n(C)c1=O | 176 | 274 |  |  |  |  |  | 
COc1ccc(-c2ccccc2)cc1 | 90 |  |  |  |  |  |  | 
CCCCCCCCCCCCOS(=O)(=O)c1ccccc1 |  |  | readily biodegradable |  |  |  |  | 
C=C(C)C1CC=C(C)CC1 (centres undefined) | -86.4 | 176 | readily biodegradable | 0.215 |  |  |  | 
C=CCCC#N |  | 140 |  |  |  |  |  | 
ClCCOCCCl | -51.9 | 178 | not readily biodegradable | 0.19 | 1.88 |  |  | 
O=C(Nc1cccc2ccccc12)Nc1cccc2ccccc12 | 296 |  |  |  |  |  |  | 
Clc1cc2c(Cl)cc(Cl)c(Cl)c2c(Cl)c1Cl |  |  |  | -6.46 |  |  |  | 9.67
OCCN1CCCCC1 | 17.9 | 202 |  |  |  |  |  | 
CNc1ccc2oc(C[C@@H]3OC4(CC[C@@H]3C)O[C@H](C(C)C(=O)c3ccc[nH]3)[C@H](C)C[C@H]4C)nc2c1C(=O)O (some centres undefined) | 182 |  |  |  |  |  |  | 
Clc1ccc(-c2c(Cl)c(Cl)c(Cl)c(Cl)c2Cl)c(Cl)c1Cl |  |  |  |  |  | -4.96 |  | 

Structure (SMILES) | melting point [°C] | boiling point [°C] | ready biodegradability | log10 vapour pressure (mmHg) | log10 Koc (L/kg) | log10 Henry constant (atm·m³/mol) | log10 biodegradation half-life (days) | log10 Koa
COP(=O)(OC)O/C(=C\Cl)c1ccc(Cl)cc1Cl | 69.5 |  |  | -5.01 |  |  |  | 
CC(C)CCCl | -104 | 98.9 |  |  |  |  |  | 
CNC(=O)NC(C)=O | 180 |  |  |  |  |  |  | 
CC(C)=CCC/C(C)=C/CO |  | 228 | readily biodegradable | -1.52 |  |  |  | 
CNc1cnn(-c2cccc(C(F)(F)F)c2)c(=O)c1Cl | 184 |  |  | -7.54 | 3.28 |  |  | 
O=C[C@@H](O)C(O)CO (stereo in doubt) | 129 |  |  |  |  |  |  | 
CC#CCCCCCC |  | 162 |  |  |  |  |  | 
C=C1CCC1 | -135 | 42.2 |  |  |  |  |  | 
COCC(=O)O | 7.7 | 204 |  | -0.839 |  |  |  | 
OCCN1CCOCC1 | -1.6 | 227 | readily biodegradable |  |  |  |  | 
OCC(Cl)Cl |  | 146 |  |  |  |  |  | 
Clc1cccc(Oc2ccc(Cl)cc2Cl)c1 |  |  |  | -3.74 |  |  |  | 
CCN1C(=O)C=CC1=O | 45.5 |  |  |  |  |  |  | 
CCOC(=O)c1c(Cl)c(Cl)c(Cl)c(Cl)c1C(=O)O | 94.5 |  |  |  |  |  |  | 
O=C(O)C(F)(F)C(F)(F)F |  | 96.5 |  |  |  |  |  | 
Cc1cc(-c2ccc(N)c(C)c2)ccc1N | 132 | 339 | not readily biodegradable |  |  |  |  | 
Clc1ccc(Oc2ccc(Cl)cc2)cc1 | 30 | 313 |  | -3.3 |  |  |  | 
C1COCCOCCOCCO1 | 16 |  |  |  |  |  |  | 
O=C(O)CCc1nc(-c2ccccc2)c(-c2ccccc2)o1 | 161 |  |  |  |  |  |  | 
CCCB(O)O | 107 |  |  |  |  |  |  | 
Cc1ccc(S(=O)(=O)C2(C(=O)OC(C)C)CC2)cc1 | 65.5 |  |  |  |  |  |  | 
CC(C)CCO[N+](=O)[O-] |  | 146 |  | 0.71 |  | -2.59 |  | 
CCC(N)Cc1c[nH]c2ccccc12 (centres undefined) | 97 |  |  |  |  |  |  | 
c1ccc(-c2ccncc2)cc1 | 77.5 | 281 |  |  |  |  |  | 
O=S(=O)(c1ccc(O)cc1)c1ccc(O)cc1 | 240 |  | not readily biodegradable |  |  |  |  | 

Structure (SMILES) | melting point [°C] | boiling point [°C] | ready biodegradability | log10 vapour pressure (mmHg) | log10 Koc (L/kg) | log10 Henry constant (atm·m³/mol) | log10 biodegradation half-life (days) | log10 Koa
O=C1C(Cl)=C(Nc2ccccc2)C(=O)c2ccccc21 | 215 |  |  |  |  |  |  | 
OC(C1=CC(=C(c2ccccn2)c2ccccn2)C=C1)(c1ccccn1)c1ccccn1 | 147 |  |  |  |  |  |  | 
O=C(O)[C@H](O)[C@@H](O)[C@H](O)[C@H](O)C(O)CO (some centres undefined) | 146 |  |  |  |  |  |  | 
C[C@]12CC[C@H](O)C[C@H]1CC[C@@H]1[C@@H]2[C@H](O)C[C@]2(C)[C@@H](c3ccc(=O)oc3)CC[C@]12O | 254 |  |  |  |  |  |  | 
CC(C)CC(C)(C)C(C)C |  | 153 |  |  |  |  |  | 
C1CCCCCCCCCCCCCC1 | 61.3 |  |  |  |  |  |  | 
CCCCCCC(O)C(=O)O (centres undefined) | 70 |  |  |  |  |  |  | 
CC(=O)c1ccc(O)c(O)c1 | 116 |  |  |  |  |  |  | 
O=COC1CCCCC1 |  | 163 |  |  |  |  |  | 
C=CCC(C)CCC (centres undefined) |  | 113 |  |  |  |  |  | 
O=C(CBr)c1ccccc1 | 50.5 |  |  |  |  |  |  | 
CCC(C)(C)C(=O)O | -14 | 186 |  | -0.83 |  |  |  | 
Nc1ccc(Cc2ccc(N)c(Cl)c2Cl)c(Cl)c1Cl |  |  | not readily biodegradable |  |  |  |  | 
CCCn1c(=O)[nH]c(=O)c2[nH]cnc21 | 288 |  |  |  |  |  |  | 
CCCC(=O)c1c(C)cc(C)c(C2CC(=O)C(C(CC)=NOCC)=C(O)C2)c1C (centres undefined) | 80.8 |  |  | -8.12 |  |  |  | 
C=C1C2CCC(C2)C1(C)C (centres undefined) | 51.6 | 160 | not readily biodegradable | 0.399 |  |  |  | 
Cc1ccc(CC#N)cc1 | 18 | 242 |  |  |  |  |  | 
Sc1ccccc1Cl |  | 206 |  |  |  |  |  | 
CC(C)N | -95.1 | 31.7 |  | 2.76 |  |  |  | 
CCN(CC)CCN1C(=O)CN=C(c2ccccc2F)c2cc(Cl)ccc21 | 79.5 |  |  |  |  |  |  | 
COc1cccc(N(C)C(=S)Oc2cccc(C(C)(C)C)c2)n1 | 86 |  |  |  |  |  |  | 
CCCCC(CC)COC(C)=O (centres undefined) | -80 | 199 |  | -0.638 |  |  |  | 
CN(C)c1ccncc1 | 112 |  |  |  |  |  |  | 

same assay, conditions: fish

Structure (SMILES) | log10 BCF | log10 biotransformation half-life (days)
Nc1ccccc1[N+](=O)[O-] | 1 | -0.46
FC(Cl)(Cl)C(F)(Cl)Cl | 1.77 | 
ClCCOCCCl | 1 | -0.81
Clc1ccc(-c2c(Cl)c(Cl)c(Cl)c(Cl)c2Cl)c(Cl)c1Cl |  | 2.54
CCCCc1ccc2cc(C)c(C)cc2c1 |  | 0.24
Cc1cc(-c2ccc(N)c(C)c2)ccc1N | 1.67 | 
C=C1C2CCC(C2)C1(C)C (centres undefined) | 2.98 | 0.96
